Results published in patent US20230111853A1, “COMPOUNDS MODULATING PROTEIN RECRUITMENT AND/OR DEGRADATION” (Orionis Biosciences, Inc., priority 2019, published 2023).

Tested on: IKZF1, ASS1 and SALL4 recruitment to CRBN
Test: Recruitment assessment: recruitment of any tested substrate from among IKZF1, ASS1 and SALL4
Format: cell-based
Conditions: any tested substrate at any tested compound concentration
Experimental: In this experimental set-up, cells were transfected with a construct encoding a CRBN-fusion protein and another one encoding a substrate-fusion protein. Test compound activity was assessed with increasing concentrations of test compounds (dose-response studies) to monitor the ability to promote CRBN-ligand-induced protein interaction.
Full size proteins were fused for each of the target proteins tested, except in the case of IKZF1 where isoform 7 was used. For the study, the following were used: IKZF1 recruitment: pSEL-CRBN+pMG1-IKZF1(isoform 7); ASS1 recruitment: pSEL-CRBN+pMG1-ASS1. SALL4 recruitment: pSEL-SALL4+pMG1-CRBN. […] Luciferase activity was measured 24 hours after test compound treatment using the Luciferase Assay System kit (PROMEGA, Madison, Wis.) with an Ensight plate reader (PERKIN ELMER LIFE SCIENCES, Waltham, Mass.). Data points depicted fold induction of the average luciferase activity of triplicate samples from EPO+test compound treated cells versus EPO only treated cells. Error bars represent standard deviations. Curves were fit using 4-parameter nonlinear regression in […] PRISM software.

| Structure (SMILES) | Recruitment Assessment |
| --- | --- |
| Cc1nc2cccc(N)c2c(=O)n1C1CCC(=O)NC1=O (stereo not shown) [CC-122, 3-(5-amino-2-methyl-4-oxo-quinazolin-3-yl)piperidine-2,6-dione, reference compound] | TRUE |
| NC(=O)c1ccc2c(c1)C(=O)N(C1CCC(=O)NC1=O)C2 (stereo not shown) [C39772, 2-(2,6-dioxo-3-piperidyl)-3-oxo-isoindoline-5-carboxamide] | FALSE |
| Nc1nccc(Nc2ccc3c(c2)CN(C2CCC(=O)NC2=O)C3=O)n1 (stereo not shown) [C80375, 3-[5-[(2-aminopyrimidm-4-yl)amino]-1-oxo-isoindolin-2-yl] piperidine-2,6-dione] | FALSE |
| Nc1cccc2c1CCN(C1CCC(=O)NC1=O)C2=O (stereo not shown) [C47933, 3-(5-amino-1-oxo-3,4-dihydroisoquinolin-2-yl)piperidine-2,6-dione] | TRUE |
| O=C1CCC(N2Cc3ccc(Nc4[nH]cnc5nccc4-5)cc3C2=O)C(=O)N1 (stereo not shown) [C80385, 3-[1-oxo-6-(3H-pyrrolo[2,3-d]pyrimidin-4-ylamino)isoindolin-2-yl] piperidine-2,6-dione] | FALSE |
| CN(C)CC(=O)Nc1ccc2c(c1)C(=O)N(C1CCC(=O)NC1=O)C2 (stereo not shown) [C49708, 2-(dimethylamino)-N-[2-(2,6-dioxo-3-piperidyl)-3-oxo-isoindolin-5-yl]acetamide] | FALSE |
| CC1Cc2ccccc2N1C(=O)CNc1ccc2c(c1)C(=O)N(C1CCC(=O)NC1=O)C2 (stereo not shown) [C95336, 3-[6-[[2-(2-methylindolin-1-yl)-2-oxo-ethyl]amino]-1-oxo-isoindolin-2-yl]piperidine-2,6-dione] | FALSE |
| O=C1CCC(CN2C(=O)c3ccccc3C2=O)C(=O)N1 (stereo not shown) [C23258, 2-[(2,6-dioxo-3-piperidyl)methyl]isoindoline-1,3-dione] | FALSE |
| Nc1cccc2c1C(=O)N(C1CCC(=O)NC1=O)C2=O (stereo not shown) [POM, 4-amino-2-(2,6-dioxo-3-piperidyl)isoindoline-1,3-dione, reference compound] | TRUE |
| CC(C)(C)OC(=O)CC1c2ccccc2C(=O)N1C1CCC(=O)NC1=O (stereo not shown) [C98053, t-butyl 2-[2-(2,6-dioxo-3-piperidyl)-3-oxo-isoindolin-1-yl]acetate] | FALSE |
| O=C1CCC(Nc2cnc3ccccc3n2)C(=O)N1 (stereo not shown) [C44292, 3-(quinoxalin-2-ylamino)piperidine-2,6-dione] | FALSE |
| CN(Cc1cnn(C)c1)C(=O)CNc1ccc2c(c1)C(=O)N(C1CCC(=O)NC1=O)C2 (stereo not shown) [C95333] | FALSE |
| Cn1ncc2c(Nc3ccc4c(c3)C(=O)N(C3CCC(=O)NC3=O)C4)ncnc21 (stereo not shown) [C80383, 3-[6-[(1-methylpyrazolo[3,4-d]pyrimidin-4-yl)amino]-1-oxo-isoindolin-2-yl]piperidine-2,6-dione] | FALSE |
| O=C1CCC(N2Cc3ccc(O)cc3C2=O)C(=O)N1 (stereo not shown) [C28928, 3-(6-hydroxy-1-oxo-isoindolin-2-yl)piperidine-2,6-dione] | TRUE |
| O=C1CCC(N2Cc3ccc(NCC(=O)N4Cc5ccccc5C4)cc3C2=O)C(=O)N1 (stereo not shown) [C95330, 3-[6-[(2-isoindolin-2-yl-2-oxo-ethyl)amino]-1-oxo-isoindolin-2-yl] piperidine-2,6-dione] | FALSE |
| O=C1CCC(Nc2ncccn2)C(=O)N1 (stereo not shown) [C55468, 3-(pyrimidin-2-ylamino)piperidine-2,6-dione] | FALSE |
| O=C1CCC(N2Cc3cc(O)ccc3C2=O)C(=O)N1 (stereo not shown) [C28891, 3-(5-hydroxy-1-oxo-isoindolin-2-yl)piperidine-2,6-dione] | TRUE |
| CC1CN(C)CCN1C(=O)CNc1ccc2c(c1)C(=O)N(C1CCC(=O)NC1=O)C2 (stereo not shown) [C12595, 3-[6-[[2-(2,4-dimethylpiperazin-1-yl)-2-oxo-ethyl]amino]-1-oxo-isoindolin-2-yl]piperidine-2,6-dione] | FALSE |
| Cl.NC1Cc2ccccc2C1=O (stereo not shown) [C75987, 2-aminoindan-1-one; hydrochloride] | FALSE |
| Nc1cccc2c(=O)n(C3CCC(=O)NC3=O)nnc12 (stereo not shown) [C35833, 3-(8-amino-4-oxo-1,2,3-benzotriazin-3-yl)piperidine-2,6-dione] | FALSE |
| COc1cnccc1C(=O)Nc1ccc2c(c1)=NC(=O)N=2 [C36124, 3-methoxy-N-(2-oxobenzimidazol-5-yl)pyridine-4-carboxamide] | FALSE |
| Cc1ccc(NC(=O)NCc2cc(C)c3c(c2)CN(C2CCC(=O)NC2=O)C3=O)cc1Cl (stereo not shown) [C58181, 1-(3-chloro-4-methyl-phenyl)-3-[[2-(2,6-dioxo-3-piperidyl)-7-methyl-1-oxo-isoindolin-5-yl]methyl]urea] | TRUE |

| Structure (SMILES) | Recruitment Assessment |
| --- | --- |
| CNC(=O)Nc1cccc2c1CN(C1CCC(=O)NC1=O)C2=O (stereo not shown) [C22594, 1-[2-(2,6-dioxo-3-piperidyl)-1-oxo-isoindolin-4-yl]-3-methyl-urea] | TRUE |
| O=C1CCC(N2C(=O)c3ccccc3C2NC(=O)c2ccccc2)C(=O)N1 (stereo not shown) [C46003, N-[2-(2,6-dioxo-3-piperidyl)-3-oxo-isoindolin-1-yl]benzamide] | FALSE |
| Cn1ccnc(Nc2ccc3c(c2)C(=O)N(C2CCC(=O)NC2=O)C3)c1=O (stereo not shown) [C80387, 3-[6-[(4-methyl-3-oxo-pyrazin-2-yl)amino]-1-oxo-isoindolin-2-yl] piperidine-2,6-dione] | FALSE |
| CN1CCN(C(=O)CNc2ccc3c(c2)C(=O)N(C2CCC(=O)NC2=O)C3)CC1=O (stereo not shown) [C12597, 3-[6-[[2-(4-methyl-3-oxo-piperazin-1-yl)-2-oxo-ethyl]amino]-1-oxo-isoindolin-2-yl]piperidine-2,6-dione] | FALSE |
| O=C1CCc2cc(C(=O)N3CCc4cccnc43)cnc2N1 [C36128, 6-(2,3-dihydropyrrolo[2,3-b]pyridine-1-carbonyl)-3,4-dihydro-1H-1,8-naphthyridin-2-one] | FALSE |
| O=C1CCC(N2C(=O)C3=C(CCC3)C2=O)C(=O)N1 (stereo not shown) [C64324, 2-(2,6-dioxo-3-piperidyl)-5,6-dihydro-4H-cyclopenta[c] pyrrole-1,3-dione] | FALSE |
| O=C1CCC(N2Cn3c(cccc3=O)C2=O)C(=O)N1 (stereo not shown) [C60651, 2-(2,6-dioxo-3-piperidyl)-3H-imidazo[1,5-a]pyridine-1,5-dione] | FALSE |
| Nc1cccc2c1CN(C1CNC(=O)NC1=O)C2=O (stereo not shown) [C47928, 5-(4-amino-1-oxo-isoindolin-2-yl)hexahydropyrimidine-2,4-dione] | FALSE |
| Nc1cccc2c1C(=O)N(C1CCC(=O)NC1=O)C2 (stereo not shown) [3-(7-amino-1-oxo-isoindolin-2-yl)piperidine-2,6-dione] | TRUE |
| O=C(CNc1ccc2c(c1)C(=O)N(C1CCC(=O)NC1=O)C2)NCc1ccccc1 (stereo not shown) [C84966, N-benzyl-2-[[2-(2,6-dioxo-3-piperidyl)-3-oxo-isoindolin-5-yl]amino]acetaimde] | FALSE |
| Cc1cccc2c1S(=O)(=O)N(C1CCC(=O)NC1=O)C2=O (stereo not shown) [C75688, 3-(7-methyl-1,1,3-trioxo-1,2-benzothiazol-2-yl)piperidine-2,6-dione] | FALSE |
| O=C1CCC(N2C(=O)c3ccccc3C2C2=c3ccccc3=NC2)C(=O)N1 (stereo not shown) [C49713, 3-[1-(2H-indol-3-yl)-3-oxo-isoindolin-2-yl]piperidine-2,6-dione] | FALSE |
| CC1CN(C(=O)CNc2ccc3c(c2)C(=O)N(C2CCC(=O)NC2=O)C3)CCO1 (stereo not shown) [C12586, 3-[6-[[2-(2-methylmorpholin-4-yl)-2-oxo-ethyl]amino]-1-oxo-isoindolin-2-yl]piperidine-2,6-dione] | FALSE |
| COc1ccc(Br)c2c1C(=O)N(C1CCC(=O)NC1=O)C2 (stereo not shown) [C74668, 3-(4-bromo-7-methoxy-1-oxo-isoindolin-2-yl)piperidine-2,6-dione] | FALSE |
| O=C1CCC(N2C(=O)CC3(Cc4ccccc4C3)C2=O)C(=O)N1 (stereo not shown) [C64329, 1′-(2,6-dioxo-3-piperidyl)spiro[indane-2,3′-pyrrolidine]-2′,5′-dione] | FALSE |
| Nc1cccc2c1CN(C1CCS(=O)(=O)NC1=O)C2=O (stereo not shown) [C55859, 4-(4-Amino-1-oxoisoindolin-2yl)-1,2-thiazinan-3-one 1,1-dioxide] | FALSE |
| O=C1CCC(N2Cc3ccc(Nc4cnc5ccccc5n4)cc3C2=O)C(=O)N1 (stereo not shown) [C80386, 3-[1-oxo-6-(quinoxalin-2-ylamino)isoindolin-2-yl]piperidine-2,6-dione] | FALSE |
| O=C1CCC(N2Cc3ccc(NCC(=O)N4CC5COCC5C4)cc3C2=O)C(=O)N1 (stereo not shown) [C95334, 3-[6-[[2-(1,3,3a,4,6,6a-hexahydrofuro[3,4-c]pyrrol-5-yl)-2-oxo-ethyl]amino]-1-oxo-isoindolin-2-yl]piperidine-2.6-dione] | FALSE |
| Cc1cccc2c1C(=O)N(C1CCC(=O)NC1=O)S2(=O)=O (stereo not shown) [C73349, 3-(4-methyl-1,1,3-trioxo-1,2-benzothiazol-2-yl)piperidine-2,6-dione] | FALSE |
| O=C1CCc2cc(C(=O)N3CCCc4ccccc43)cnc2N1 [C36126, 6-(3,4-dihydro-2H-quinoline-1-carbonyl)-3,4-dihydro-1H-1,8-naphthyridin-2-one] | FALSE |
| CN(C)c1ccc2c(c1)C(=O)N(C1CCC(=O)NC1=O)C2 (stereo not shown) [C96622, 3-[6-(dimethylamino)-1-oxo-isoindolin-2-yl]piperidine-2,6-dione] | FALSE |
